# Target: human Thrombin (Homo sapiens, UniProt P00734)
# Experiment: In vitro assay for inhibition of Thrombin (chromogenic or fluorogenic assay)
# Format: biochemical
# Settings: Example 2 chromogenic assay, other Examples fluorogenic assay, read-out: thrombin inhibitory Ki
# Method: Thrombin inhibitory activity is measured by the ability to inhibit human α-thrombin in a chromogenic assay using N-p-tosyl-gly-pro-lys p-nitroanilide as the chromogenic substrate, or in a fluorogenic assay using Rhodamine 110, bis-(CBZ-L-valyl-L-prolyl-L-arginine amide) as the fluorogenic substrate.
# The compound was diluted from a 10 mM stock solution in dimethylsulfoxide at appropriate concentrations. Assay was performed at room temperature using buffer consisting of: 50 mM HEPES, 150 mM NaCl, 5 mM CaCl2, 0.1% PEG, pH 7.4. containing human Thrombin (final conc. of 1 nM). Compound and enzyme were preincubated for 15 min prior to addition of the substrate (final conc. of 100 μM). The reaction was stopped after 30 min with the addition of soybean trypsin inhibitor or H-D-PHE-PRO-ARG-Chloromethylketone. […] To obtain IC50 values the data were analysed using ActivityBase® and XLfit®.
# Compounds were diluted from a 10 mM stock solution in dimethylsulfoxide at appropriate concentrations. Assay was performed at room temperature using buffer consisting of: 50 mM HEPES, 150 mM NaCl, 5 mM CaCl2, 0.1% PEG, pH 7.4. containing human Thrombin (final conc. Of 0.2 nM). Compound and enzyme were preincubated for 15 min prior to addition of the substrate (final conc. of 10 μM). The reaction was stopped after 3 hrs with the addition of H-D-PHE-PRO-ARG-Chloromethylketone. […] To obtain IC50 values the data were analysed using ActivityBase® and XLfit®.
row,Ki [nM],Structure (SMILES)
1,< 100,"Cc1noc(C[C@@H](C(=O)N2CCOCC2)N2CC[C@H](NS(=O)(=O)CCc3ccc(Cl)cc3)C2=O)n1 [Example 82, 2-(4-chlorophenyl)-N-{(3S)-1-[(1S)-1-[(3-methyl-1,2,4-oxadiazol-5-yl)methyl]-2-(4-morpholinyl)-2-oxoethyl]-2-oxo-3-pyrrolidinyl}ethanesulfonamide]"
2,< 100,"Cn1ncnc1C[C@@H](C(=O)N1CCOCC1)N1CC[C@H](NS(=O)(=O)CCc2ccc(Cl)s2)C1=O [Example 81, 2-(5-chloro-2-thienyl)-N-{(3S)-1-[(1S)-1-[(1-methyl-1H-1,2,4-triazol-5-yl)methyl]-2-(4-morpholinyl)-2-oxoethyl]-2-oxo-3-pyrrolidinyl}ethanesulfonamide]"
3,< 50,"CCSC[C@@H](C(=O)N1CCOCC1)N1CC[C@H](NS(=O)(=O)CCc2ccc(Cl)s2)C1=O [Example 75, 2-(5-chloro-2-thienyl)-N-{(3S)-1-[(1R)-1-((ethylthio)methyl]-2-(4-morpholinyl)-2-oxoethyl]-2-oxo-3-pyrrolidinyl}ethanesulfonamide]"
4,< 50,"Cc1noc(C[C@@H](C(=O)N2CCOCC2)N2CC[C@H](N(C)S(=O)(=O)CCc3ccc(Cl)s3)C2=O)n1 [Example 79, 2-(5-chloro-2-thienyl)-N-methyl-N-{(3S)-1-[(1S)-1-[(3-methyl-1,2,4-oxadiazol-5-yl)methyl]-2-(4-morpholinyl)-2-oxoethyl]-2-oxo-3-pyrrolidinyl}ethanesulfonamide]"
5,< 25,"CCOC[C@@H](C(=O)N1CCOCC1)N1CC[C@H](NS(=O)(=O)CCc2ccc(Cl)cc2)C1=O [Example 86, 2-(4-chlorophenyl)-N-((3S)-1-[(1S)-1-[(ethyloxy)methyl]-2-(4-morpholinyl)-2-oxoethyl]-2-oxo-3-pyrrolidinyl}ethanesulfonamide]"
6,< 10,"CCOC[C@@H](C(=O)N1CCOCC1)N1CC[C@H](NS(=O)(=O)/C=C(\C)c2ccc(Cl)s2)C1=O [Example 87, (1E)-2-(5-chloro-2-thienyl)-N-{(3S)-1-[(1S)-1-[(ethyloxy)methyl]-2-(4-morpholinyl)-2-oxoethyl]-2-oxo-3-pyrrolidinyl}-1-propene-1-sulfonamide]"
7,< 10,"CC[C@@H](C(=O)N1CCOCC1)N1CC[C@H](NS(=O)(=O)/C=C(\C)c2ccc(Cl)s2)C1=O [Example 7, (1E)-2-(5-chlorothien-2-yl)-N-{(3S)-1-[(1S)-1-(morpholin-4-ylcarbonyl)propyl]-2-oxopyrrolidin-3-yl}prop-1-ene-1-sulfonamide]"
8,< 200,"CC[C@H](C)[C@@H](C(=O)N1CCOCC1)N1CC[C@H](NS(=O)(=O)/C=C(\F)c2ccc(Cl)cc2)C1=O [Example 30, (Z)-2-(4-chlorophenyl)-2-fluoro-N-{(3S)-1-[(1S,2S)-2-methyl-1-(morpholin-4-ylcarbonyl)butyl]-2-oxopyrrolidin-3-yl}ethenesulfonamide]"
9,< 25,"O=C([C@H](Cc1cccs1)N1CC[C@H](NS(=O)(=O)CCc2ccc(Cl)cc2)C1=O)N1CCOCC1 [Example 24, 2-(4-chlorophenyl)-N-{(3S)-1-[(1S)-2-morpholin-4-yl-2-oxo-1-(thien-2-ylmethyl)ethyl]-2-oxopyrrolidin-3-yl}ethanesulfonamide]"
10,< 25,"C[C@@H](C(=O)N1CCOCC1)N1CC[C@H](NS(=O)(=O)CC(F)(F)c2ccc(Cl)cc2)C1=O [Example 27, 2-(4-chlorophenyl)-2,2-difluoro-N-{(3S)-1-[(1S)-1-methyl-2-morpholin-4-yl-2-oxoethyl]-2-oxopyrrolidin-3-yl}ethanesulfonamide]"
11,< 50,"CN(Cc1ccccc1)C(=O)C[C@@H](C(=O)N1CCOCC1)N1CC[C@H](NS(=O)(=O)CCc2ccc(Cl)s2)C1=O [Example 83, (3S)-3-[(3S)-3-({[2-(5-chloro-2-thienyl)ethyl]sulfonyl)amino)-2-oxo-1-pyrrolidinyl]-N-methyl-4-(4-morpholinyl)-4-oxo-N-(phenylmethyl)butanamide]"
12,< 50,"C[C@@H](C(=O)N1CCOCC1)N1CC[C@H](N(C)S(=O)(=O)CCc2ccc(Cl)s2)C1=O [Example 19, 2-(5-Chlorothien-2-yl)-N-methyl-N-{(3S)-1-[(1S)-1-methyl-2-morpholin-4-yl-2-oxoethyl]-2-oxopyrrolidin-3-yl}ethanesulfonamide]"
13,< 25,"Cc1noc(C[C@@H](C(=O)N2CCOCC2)N2CC[C@H](NS(=O)(=O)CCc3ccc(Cl)s3)C2=O)n1 [Example 78, 2-(5-chloro-2-thienyl)-N-{(3S)-1-[(1S)-1-[(3-methyl-1,2,4-oxadiazol-5-yl)methyl]-2-(4-morpholinyl)-2-oxoethyl]-2-oxo-3-pyrrolidinyl}ethanesulfonamide]"
14,< 10,"C/C(=C\S(=O)(=O)N[C@H]1CCN([C@H](C(=O)N2CCOCC2)C(C)C)C1=O)c1ccc(Cl)s1 [Example 9, (1E)-2-(5-chlorothien-2-yl)-N-{(3S)-1-[(1S)-2-methyl-1-(morpholin-4-ylcarbonyl)propyl]-2-oxopyrrolidin-3-yl}prop-1-ene-1-sulfonamide]"
15,< 100,"C[C@@H](C(=O)N1CCOCC1)N1CC[C@H](NS(=O)(=O)CCc2ccc(Cl)cn2)C1=O [Example 47, 2-(5-chloro-2-pyridinyl)-N-{(3S)-1-[(1S)-1-methyl-2-(4-morpholinyl)-2-oxoethyl]-2-oxo-3-pyrrolidinyl}ethanesulfonamide]"
16,< 100,"CC(C)C[C@@H](C(=O)N1CCOCC1)N1CC[C@H](NS(=O)(=O)CCc2ccc(Cl)s2)C1=O [Example 37, 2-(5-chlorothien-2-yl)-N-{(3S)-1-[(1S)-3-methyl-1-(morpholin-4-ylcarbonyl)butyl]-2-oxopyrrolidin-3-yl}ethanesulfonamide]"
17,< 25,"COC(=O)CN([C@H]1CCN([C@@H](C)C(=O)N2CCOCC2)C1=O)S(=O)(=O)CCc1ccc(Cl)s1 [Example 35, Methyl N-{[2-(5-chlorothien-2-yl)ethyl]sulfonyl}-N-{(3S)-1-[(1S)-1-methyl-2-morpholin-4-yl-2-oxoethyl]-2-oxopyrrolidin-3-yl}glycinate]"
18,< 50,"COC[C@@H](C(=O)N1CCOCC1)N1CC[C@H](NS(=O)(=O)CCc2ccc(Cl)cc2)C1=O [Example 89, 2-(4-chlorophenyl)-N-{(3S)-1-[(1S)-1-[(methyloxy)methyl]-2-(4-morpholinyl)-2-oxoethyl]-2-oxo-3-pyrrolidinyl}ethanesulfonamide]"
19,< 100,"CC[C@H](C)[C@@H](C(=O)N1CCOCC1)N1CC[C@H](NS(=O)(=O)CC(O)c2ccc(Cl)cc2)C1=O (stereo partly drawn) [Example 53, 2-(4-chlorophenyl)-2-hydroxy-N-{(3S)-1-[(1S,2S)-2-methyl-1-(4-morpholinylcarbonyl)butyl]-2-oxo-3-pyrrolidinyl}ethanesulfonamide]"
20,< 200,"COC[C@@H](C(=O)N1CCOCC1)N1CC[C@H](NS(=O)(=O)CC2CCc3cc(Cl)ccc32)C1=O (stereo partly drawn) [Example 62, 1-(5-chloro-2,3-dihydro-1H-inden-1-yl)-N-{(3S)-1-[(1S)-1-[(methyloxy)methyl]-2-(4-morpholinyl)-2-oxoethyl]-2-oxo-3-pyrrolidinyl}methanesulfonamide]"
21,< 50,"CC(C)[C@@H](C(=O)N1CCOCC1)N1CC[C@H](NS(=O)(=O)CCc2ccc(Cl)cc2)C1=O [Example 45, 2-(4-chlorophenyl)-N-{(3S)-1-[(1S)-2-methyl-1-(morpholin-4-ylcarbonyl)propyl]-2-oxopyrrolidin-3-yl}ethanesulfonamide]"
22,< 100,"CC[C@@H](C(=O)N1CCOCC1)N1CC[C@H](NS(=O)(=O)CCc2ccc(Br)cc2)C1=O [Example 26, 2-(4-bromophenyl)-N-{(3S)-1-[(1S)-1-(morpholin-4-ylcarbonyl)propyl]-2-oxopyrrolidin-3-yl}ethanesulfonamide]"
23,< 10,"CNC(=O)CN([C@H]1CCN([C@@H](COC)C(=O)N2CCOCC2)C1=O)S(=O)(=O)CCc1ccc(Cl)s1 [Example 98, N^2-{(2-(5-chloro-2-thienyl)ethyl]sulfonyl}-N^1-methyl-N^2-{(3S)-1-[(1S)-1-[(methyloxy)methyl]-2-(4-morpholinyl)-2-oxoethyl]-2-oxo-3-pyrrolidinyl}glycinamide]"
24,< 25,"CC[C@H](C)[C@@H](C(=O)N1CCOCC1)N1CC[C@H](NS(=O)(=O)CCc2ccc(Cl)cn2)C1=O [Example 48, 2-(5-chloro-2-pyridinyl)-N-{(3S)-1-[(1S,2S)-2-methyl-1-(4-morpholinylcarbonyl)butyl]-2-oxo-3-pyrrolidinyl}ethanesulfonamide]"
25,< 100,"CN(C)CC[C@@H](C(=O)N1CCOCC1)N1CC[C@H](NS(=O)(=O)CCc2ccc(Cl)s2)C1=O [Example 93, 2-(5-chloro-2-thienyl)-N-{(3S)-1-[(1S)-3-(dimethylamino)-1-(4-morpholinylcarbonyl)propyl]-2-oxo-3-pyrrolidinyl}ethanesulfonamide]"
26,< 50,"CC[C@H](C)[C@@H](C(=O)N1CCOCC1)N1CC[C@H](NS(=O)(=O)CC(=O)c2ccc(Cl)cc2)C1=O [Example 51, 2-(4-chlorophenyl)-N-{(3S)-1-[(1S,2S)-2-methyl-1-(4-morpholinylcarbonyl)butyl]-2-oxo-3-pyrrolidinyl}-2-oxoethanesulfonamide]"

# From patent US20060166985A1, “Pyrrolydin-2-one derivatives as inhibitors of thrombin and factor xa” (priority 2002, published 2006)
